# From US20070082952A1, “Pharmaceutical compositions, methods of preparation thereof, and methods of treatment” (priority 2005, published 2007)
# Experiments:
# aqueous solubility = format: physicochemical
# Description: An obstacle to the use of 3-biphenyl-4-yl-(2S)-[(4′-trifluoromethyl-biphenyl-4-carbonyl)-amino]-propionic acid in certain pharmacological forms is its aqueous solubility (less than 0.5 micrograms/milliliter (μg/mL)), which may make the bioavailability of biphenyl-4-yl-(2S)-[(4′-trifluoromethyl-biphenyl-4-carbonyl)-amino]-propionic acid lower than desirable. A composition of the present invention, having an increased dissolution rate, advantageously enhances the bioavailability of 3-biphenyl-4-yl-(2S)-[(4′-trifluoromethyl-biphenyl-4-carbonyl)-amino]-propionic acid, particularly when dosed orally.
# [1] = Dissolution, USP method 2 (paddles at 75 rpm, 0.025 M NaH2PO4 with 2% SDS, pH 6.8); format: physicochemical; settings: 2×100 mg, pH 6.8, paddles 75 rpm
# Procedure: Dissolution of the wet granulation tablets of Example 1 and the dry formulation capsules of Example 2 was determined using USP method 2 (paddles at 75 rpm, 0.025 M NaH2PO4 with 2% sodium dodecyl sulfate (SDS), pH 6.8).
structure (smiles),measurement,setting,value
O=C(N[C@@H](Cc1ccc(-c2ccccc2)cc1)C(=O)O)c1ccc(-c2ccc(C(F)(F)F)cc2)cc1 [3-biphenyl-4-yl-(2S)-[(4′-trifluoromethyl-biphenyl-4-carbonyl)-amino]-propionic acid],aqueous solubility,aqueous solubility,less than 0.5 μg/mL
same,Percent 3-Biphenyl-4-yl-(2S)-[(4′-trifluoromethyl-biphenyl-4-carbonyl)-amino]-propionic acid Dissolved,[1]; Time 0 min,0%
same,Percent 3-Biphenyl-4-yl-(2S)-[(4′-trifluoromethyl-biphenyl-4-carbonyl)-amino]-propionic acid Dissolved,[1]; Time 15 min,43.2%
same,Percent 3-Biphenyl-4-yl-(2S)-[(4′-trifluoromethyl-biphenyl-4-carbonyl)-amino]-propionic acid Dissolved,[1]; Time 30 min,57.0%
same,Percent 3-Biphenyl-4-yl-(2S)-[(4′-trifluoromethyl-biphenyl-4-carbonyl)-amino]-propionic acid Dissolved,[1]; Time 45 min,67.3%
same,Percent 3-Biphenyl-4-yl-(2S)-[(4′-trifluoromethyl-biphenyl-4-carbonyl)-amino]-propionic acid Dissolved,[1]; Time 60 min,73.9%
